The compounds below were run against Urease subunit alpha (Sporosarcina pasteurii, UniProt P41020) (assay: Urease Inhibition Assay). Details: 30 °C.
Description: Reaction mixtures comprising one unit of urease enzyme (B. pasteurii) solution and 55 uL of buffers containing 100 mMol urea were incubated with 5 uL of test compounds (1 mMol concentration) at 30° C for 15 min in 96-well plates. Urease activity was determined by measuring ammonia production using the indophenol'smethod. Momentarily, 45 uL each of phenol reagent and 70 uL of alkali reagent were added to each well. The increasing absorbance at 630 nm was measured after 50 min, using a micro-plate reader (Molecular Devices, USA). All reactions were performed in triplicate in a final volume of 200 uL. The results (change in absorbance per min.) were processed by using the Soft-Max Pro s4.5.Software (Molecular Devices, USA).

Urease subunit alpha, sequence (P41020 as listed by the source): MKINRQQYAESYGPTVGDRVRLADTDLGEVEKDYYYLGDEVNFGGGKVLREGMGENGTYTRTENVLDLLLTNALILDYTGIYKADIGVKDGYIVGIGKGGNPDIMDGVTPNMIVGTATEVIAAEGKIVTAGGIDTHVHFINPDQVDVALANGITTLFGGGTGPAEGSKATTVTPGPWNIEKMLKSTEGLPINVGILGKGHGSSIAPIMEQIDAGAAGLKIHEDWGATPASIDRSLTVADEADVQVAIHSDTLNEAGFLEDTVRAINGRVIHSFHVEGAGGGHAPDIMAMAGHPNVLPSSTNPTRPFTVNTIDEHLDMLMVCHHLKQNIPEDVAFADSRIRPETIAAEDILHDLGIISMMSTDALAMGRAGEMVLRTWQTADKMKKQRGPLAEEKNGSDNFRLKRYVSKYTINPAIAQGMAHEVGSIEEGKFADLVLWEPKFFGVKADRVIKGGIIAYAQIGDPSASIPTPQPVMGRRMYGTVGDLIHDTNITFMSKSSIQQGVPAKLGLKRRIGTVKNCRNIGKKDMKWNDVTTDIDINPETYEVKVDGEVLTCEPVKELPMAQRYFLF

Row | SMILES | IC50
1 | O=c1oc2ccccc2c(O)c1S(=O)(=O)c1cccc2ccccc12 [3-(1-Naphthosulfonyl)-(4-hydroxycoumarin) (16)] | 69.5 µM
2 | COc1cc(C(=O)c2c(O)c3ccccc3oc2=O)cc(OC)c1OC [3-(3,4,5-Trimethoxybenzoyl)-(4-hydroxycoumarin) (9)] | 11.3 µM
3 | CS(=O)(=O)c1c(O)c2ccccc2oc1=O [3-(Methanesulfonoyl)-(4-hydroxycoumarin) (11)] | 29.5 µM
4 | CCCCCCCCCC(=O)c1c(O)c2ccccc2oc1=O [3-Decanoyl-(4-hydroxycoumarin) (5)] | 13 µM
5 | CCCCCCCCCCCC(=O)c1c(O)c2ccccc2oc1=O [3-Lauroyl-(4-hydroxycoumarin) (6)] | 17.1 µM
6 | CCCCCCCCC(=O)c1c(O)c2ccccc2oc1=O [3-Nonanoyl-(4-hydroxycoumarin) (4)] | 30.9 µM
7 | NC(N)=S [thiocarbamide] | 21 µM

From BindingDB's records for doi:10.1016/j.bioorg.2016.04.005 (Comsats Institute of Information Technology, 2016)
